US6936609B2, “Imidazotriazines for use as phosphodiesterase inhibitors” (Bayer HealthCare AG, priority 2001, dated 2005)

Tests used:
[1] = target: T1, PDE 10A (Homo sapiens, UniProt Q9Y233); assay: Inhibition of PDE 10A (in vitro enzyme inhibition test); format: biochemical; conditions: recombinant full-length PDE10A expressed in Sf9 insect cells; substrate [5',8-3H] adenosine 3',5'-cyclic phosphate; 60 min at room temperature; scintillation proximity beads
T1 construct: is expressed recombinantly in full length in Sf9 insect cells; made in house; host or cells: Sf9 insect cells (Bac-to-Bac baculovirus system); lysate supernatant used as the enzyme preparation
T1 sequence (Q9Y233 1-779 isoform Q9Y233-1): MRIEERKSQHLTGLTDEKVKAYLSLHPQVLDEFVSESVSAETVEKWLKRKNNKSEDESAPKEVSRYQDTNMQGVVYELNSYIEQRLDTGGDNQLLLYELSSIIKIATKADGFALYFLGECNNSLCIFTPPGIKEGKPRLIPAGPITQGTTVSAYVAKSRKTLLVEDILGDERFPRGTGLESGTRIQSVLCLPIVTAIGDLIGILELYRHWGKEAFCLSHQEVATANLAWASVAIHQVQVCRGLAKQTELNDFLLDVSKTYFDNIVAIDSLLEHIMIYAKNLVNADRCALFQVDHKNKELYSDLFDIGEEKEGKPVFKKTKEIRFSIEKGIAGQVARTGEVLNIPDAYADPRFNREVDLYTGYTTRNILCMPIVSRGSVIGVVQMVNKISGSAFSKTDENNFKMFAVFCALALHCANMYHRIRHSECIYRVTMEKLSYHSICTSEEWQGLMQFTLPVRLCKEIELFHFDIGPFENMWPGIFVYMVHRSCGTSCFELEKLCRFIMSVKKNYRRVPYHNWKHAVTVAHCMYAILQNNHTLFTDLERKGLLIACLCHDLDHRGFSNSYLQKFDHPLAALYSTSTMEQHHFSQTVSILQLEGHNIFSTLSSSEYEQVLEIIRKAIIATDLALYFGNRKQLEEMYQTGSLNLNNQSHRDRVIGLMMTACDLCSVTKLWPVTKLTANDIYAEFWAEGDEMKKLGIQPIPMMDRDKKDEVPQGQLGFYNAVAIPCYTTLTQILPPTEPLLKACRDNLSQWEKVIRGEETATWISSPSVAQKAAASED
Experimental: PDE10A (WO 01/29 199, FIG. 1A) is expressed recombinantly in full length in Sf9 insect cells (Invitrogen, Carlsbad, Calif.) with the aid of the Bac-to-Bac™ Baculovirus expression system of Life Technologies (Gaithersburg, Md.). 48 h after the infection, the cells are harvested and suspended in 20 ml (per 1 l of culture) of lysis buffer (50 mM tris HCl, pH 7.4, 50 mM NaCl, 1 mM MgCl2, 1.5 mM EDTA, 10% glycerol plus 20 μl of Protease Inhibitor Cocktail Set III [CalBiochem, La Jolla, Calif. USA]). The cells are treated at 4° C. for 1 minute with ultrasound and subsequently centrifuged at 10000 rpm for 30 minutes at 4° C. The supernatant (PDE10A preparation) was collected and stored at −20° C.
The test substances are dissolved and serially diluted in 100% DMSO for the determination of their in vitro action on PDE 10A. Typically, dilution series of 200 μM to 1.6 μM are prepared (resulting final concentrations in the test: 4 μM to 0.032 μM). In each case, 2 μl of the diluted substance solutions are introduced into the wells of microtitre plates (Isoplate; Wallac Inc., Atlanta, Ga.). 50 μl of a dilution of the PDE10A preparation described above are subsequently added. The dilution of the PDE10A preparation is chosen such that during the later incubation less than 70% of the substrate is reacted (typical dilution: 1:10000; dilution buffer: 50 mM tris/HCl pH 7.5, 8.3 mM MgCl2, 1.7 mM EDTA, 0.2% BSA). The substrate, [5′,8-^3H] adenosine 3′, 5′-cyclic phosphate (1 μCi/μl; Amersham Pharmacia Biotech., Piscataway, N.J.) is diluted 1:2000 to a concentration of 0.0005 μCi/μl with assay buffer (50 mM tris/HCl pH 7.5, 8.3 mM MgCl2, 1.7 mM EDTA). The enzyme reaction is finally started by addition of 50 μl (0.025 μCi) of the diluted substrate. The test batches are incubated at room temperature for 60 min and the reaction is stopped by addition of 25 μl of a suspension containing 18 mg/ml of Yttrium Scintillation Proximity Beads (Amersham Pharmacia Biotech., Piscataway, N.J.). The microtitre plates are sealed using a film and allowed to stand at room temperature for 60 min. The plates are subsequently measured for 30 s per well in a Microbeta scintillation counter (Wallac Inc., Atlanta, Ga.). IC50 values are determined with the aid of graphic plotting of the substance concentration against the percentage inhibition.

Structure (SMILES)	IC50 [1] [nM]	melting point [°C]
COc1ccc(Nc2nc(-c3ccc(OC)c(OC)c3)nn3c(C4CCCC4)nc(C)c23)c(OC)c1 [Example 18, N-[7-Cyclopentyl-2-(3,4-dimethoxyphenyl)-5-methylimidazo[5,1-f][1,2,4]triazin-4-yl]-N-(2,4-dimethoxyphenyl)amine]	91	244
COc1cc(Nc2nc(-c3ccc(C)cc3)nn3c(C)nc(C)c23)cc(OC)c1OC [Example 53, N-[5,7-Dimethyl-2-(4-methylphenyl)imidazo[5,1-f][1,2,4]triazin-4-yl]-N-(3,4,5-trimethoxyphenyl)amine]	45	212 to 214
COc1ccc(-c2nc(SCc3cccnc3)c3c(C)nc(C4CCCC4)n3n2)cc1OC [Example 12, 7-Cyclopentyl-2-(3,4-dimethoxyphenyl)-5-methyl-4-[(3-pyridinylmethyl)sulphanyl]-imidazo[5,1-f][1,2,4]triazine]	460	–
COc1cc(CNc2nc(-c3ccc(OC)c(OC)c3)nn3c(C)nc(C)c23)cc(OC)c1 [Example 3, N-(3,5-Dimethoxybenzyl)-2-(3,4-dimethoxyphenyl)-5,7-dimethylimidazo[5,1-f]-[1,2,4]triazin-4-amine]	360	–

More lines, in order of falling IC50 [1], values ahead:

IC50 [1] [nM]	melting point [°C]	Structure (SMILES)
68	219 to 220	COc1cc(Nc2nc(-c3ccc(Br)cc3)nn3c(C)nc(C)c23)cc(OC)c1OC [Example 48, N-[2-(4-Bromophenyl)-5,7-dimethylimidazo[5,1-f][1,2,4]triazin-4-yl]-N-(3,4,5-trimethoxyphenyl)amine]
13	–	COc1ccc(-c2nc(Nc3cc(OC)c(OC)c(OC)c3)c3c(C)nc(C4CCCC4)n3n2)cc1S(=O)(=O)N1CCOCC1 [Example 24, 7-Cyclopentyl-2-[4-methoxy-3-(4-morpholinylsulphonyl)phenyl]-5-methyl-N-(3,4,5-trimethoxyphenyl)imidazo[5,1-f][1,2,4]triazin-4-amine]
